Earlier results, collected in article PMC7395068, “The evolution of strategies to minimise the risk of human drug-induced liver injury (DILI) in drug discovery and development” (Archives of Toxicology, 2020).
Counter-ions that a name gives are not always drawn. Like-named read-outs stand apart in the source and are kept apart here.

Settings: cited from earlier work
[1] = binary in vivo DILI call given beside the severity category, ref Chen 2016
[2] = human DILI concern category (LTKB DILIrank), ref Chen 2016

Compound	DILI +VE (5-8), DILI -VE (-4) [1]	DILI severity category [2]	DILI +VE (5-8), DILI -VE (-4) (in vivo)	DILI severity category (in vivo)
CCOC(=O)Nc1ccc2c(c1)N(C(=O)CCN1CCOCC1)c1ccccc1S2 [moricizine]	-VE	Ambiguous DILI-concern		
COc1c(N2C[C@@H]3CCCN[C@@H]3C2)c(F)cc2c(=O)c(C(=O)O)cn(C3CC3)c12 [moxifloxacin]			+VE	vLess-DILI-Concern
COc1c(C)c2c(c(O)c1C/C=C(\C)CCC(=O)OCCN1CCOCC1)C(=O)OC2 [mycophenolate mofetil]	+VE	vLess-DILI-Concern		
COc1c(C)c2c(c(O)c1C/C=C(\C)CCC(=O)O)C(=O)OC2 [mycophenolic acid]	-VE	Ambiguous DILI-concern		
CCCCCCC(C)(C)c1cc(O)c2c(c1)OC(C)(C)C1CCC(=O)CC21 (stereo not drawn) [nabilone]	-VE	vNo-DILI-Concern		
COc1ccc2cc(CCC(C)=O)ccc2c1 [nabumetone]	-VE	Ambiguous DILI-concern		
CCOc1ccc2ccccc2c1C(=O)N[C@@H]1C(=O)N2[C@@H]1SC(C)(C)[C@@H]2C(=O)O [nafcillin]	+VE	vLess-DILI-Concern		
C=C1CC[C@@]2(O)[C@H]3Cc4ccc(O)c5c4[C@@]2(CCN3CC2CC2)[C@H]1O5 [nalmefene hydrochloride]	-VE	Ambiguous DILI-concern		
CCCCCCCCCC(=O)O[C@H]1CC[C@H]2[C@@H]3CCC4=CC(=O)CC[C@@H]4[C@H]3CC[C@]12C [nandrolone decanoate]	+VE	vMost-DILI-Concern		
CNS(=O)(=O)CCc1ccc2[nH]cc(C3CCN(C)CC3)c2c1 [naratriptan]	-VE	Ambiguous DILI-concern		
COc1nc(N)nc2c1ncn2[C@@H]1O[C@H](CO)[C@@H](O)[C@@H]1O [nelarabine]	+VE	vLess-DILI-Concern		
NC[C@@H]1O[C@H](O[C@H]2[C@@H](O)[C@H](O[C@@H]3[C@@H](O)[C@H](N)C[C@H](N)[C@H]3O[C@H]3O[C@H](CN)[C@@H](O)[C@H](O)[C@H]3N)O[C@@H]2CO)[C@H](N)[C@@H](O)[C@@H]1O [neomycin]			-VE	vNo-DILI-Concern
CN(C)Cc1ccc(CSCCN/C(=C\[N+](=O)[O-])NCc2ccc3c(c2)OCO3)o1 [niperotidine]	+VE	vMost-DILI-Concern		
CC(=O)Oc1ccccc1C(=O)Nc1ncc([N+](=O)[O-])s1 [nitazoxanide]	-VE	vNo-DILI-Concern		
O=C1CCCC(=O)C1C(=O)c1ccc(C(F)(F)F)cc1[N+](=O)[O-] [nitisinone]	-VE	Ambiguous DILI-concern		
Cc1nc([N+](=O)[O-])cn1-c1ccc([N+](=O)[O-])cc1 [nitrefazole]	+VE	vMost-DILI-Concern		
C#C[C@]1(OC(C)=O)CC[C@H]2[C@@H]3CCC4=CC(=O)CC[C@@H]4[C@H]3CC[C@@]21C [norethindrone acetate]	-VE	vNo-DILI-Concern		
C[C@@H]1[C@H](O)[C@@H](C)/C=C/C=C/CC/C=C/C=C/C=C/C=C/C(O[C@H]2O[C@H](C)[C@@H](O)[C@H](N)[C@@H]2O)CC2O[C@](O)(CC(O)C(O)CCC(O)CC(O)CC(O)CC(=O)O[C@H]1C)CC(O)C2C(=O)O (stereo partly drawn) [nystatin]	-VE	vNo-DILI-Concern		
O=C(O)c1cc(/N=N/c2ccc(O)c(C(=O)O)c2)ccc1O [olsalazine]	+VE	vLess-DILI-Concern		
Cc1nccn1CC1CCc2c(c3ccccc3n2C)C1=O (stereo not drawn) [ondansetron]	+VE	vLess-DILI-Concern		
Cc1onc(-c2ccccc2)c1C(=O)N[C@@H]1C(=O)N2[C@@H]1SC(C)(C)[C@@H]2C(=O)O [oxacillin]	+VE	vLess-DILI-Concern		
O=C(O)C(=O)O.[NH-][C@@H]1CCCC[C@H]1[NH-].[Pt+2] [oxaliplatin]	+VE	vMost-DILI-Concern		
O=C1Nc2ccc(Cl)cc2C(c2ccccc2)=NC1O (stereo not drawn) [oxazepam]			-VE	Ambiguous DILI-concern

Compound	DILI +VE (5-8), DILI -VE (-4) [1]	DILI severity category [2]	DILI +VE (5-8), DILI -VE (-4) (in vivo)	DILI severity category (in vivo)
COc1ccc2c3c1O[C@H]1C(=O)CC[C@@]4(O)[C@@H](C2)N(C)CC[C@]314 [oxycodone]			-VE	vNo-DILI-Concern
O=C1Nc2ccccc2C1(c1ccc(O)cc1)c1ccc(O)cc1 [oxyphenisatin]			+VE	vMost-DILI-Concern
CC[C@H](C)[C@@H]1NC(=O)[C@H](Cc2ccc(O)cc2)NC(=O)[C@@H](N)CSSC[C@@H](C(=O)N2CCC[C@H]2C(=O)N[C@@H](CC(C)C)C(=O)NCC(N)=O)NC(=O)[C@H](CC(N)=O)NC(=O)[C@H](CCC(N)=O)NC1=O [oxytocin]			-VE	vNo-DILI-Concern
CONC(=N)c1ccc(-c2ccc(-c3ccc(C(=N)NOC)cc3)o2)cc1 [pafuramidine]	+VE	vMost-DILI-Concern		
O=C1c2cccc3c2[C@H](CCC3)CN1[C@@H]1CN2CCC1CC2 [palonosetron]	-VE	Ambiguous DILI-concern		
CC(=O)O[C@H]1C[C@@H]2CC[C@@H]3[C@H](CC[C@@]4(C)[C@H]3C[C@H]([N+]3(C)CCCCC3)[C@@H]4OC(C)=O)[C@@]2(C)C[C@@H]1[N+]1(C)CCCCC1 [pancuronium]			-VE	vNo-DILI-Concern
COc1ccnc(C[S+]([O-])c2nc3ccc(OC(F)F)cc3[nH]2)c1OC (stereo not drawn) [pantoprazole]	+VE	vLess-DILI-Concern		
COc1ccc(Cc2nccc3cc(OC)c(OC)cc23)cc1OC [papaverine]			+VE	vMost-DILI-Concern
C[C@H](/C=C/[C@H](C)C(C)(C)O)[C@H]1CC[C@H]2/C(=C/C=C3C[C@@H](O)C[C@H](O)C3)CCC[C@]12C [paricalcitol]	-VE	Ambiguous DILI-concern		
Nc1nc2[nH]cc(CCc3ccc(C(=O)N[C@@H](CCC(=O)O)C(=O)O)cc3)c2c(=O)[nH]1 [pemetrexed]	-VE	Ambiguous DILI-concern		
CSCC[C@H](NC(=O)[C@H](Cc1c[nH]c2ccccc12)NC(=O)CCNC(=O)OC(C)(C)C)C(=O)N[C@@H](CC(=O)O)C(=O)N[C@@H](Cc1ccccc1)C(N)=O [pentagastrin]			-VE	vNo-DILI-Concern
N=C(N)c1ccc(OCCCCCOc2ccc(C(=N)N)cc2)cc1 [pentamidine]	+VE	vLess-DILI-Concern		
CC(C)=CCN1CCC2(C)c3cc(O)ccc3CC1C2C (stereo not drawn) [pentazocine]	-VE	vNo-DILI-Concern		
O=C(O)CN(CCN(CC(=O)O)CC(=O)O)CCN(CC(=O)O)CC(=O)O [pentetic acid]	-VE	vNo-DILI-Concern		
CCCC(C)C1(CC)C(=O)NC(=O)NC1=O (stereo not drawn) [pentobarbital]	-VE	Ambiguous DILI-concern		
OC[C@H]1O[C@@H](n2cnc3c2NC=NC[C@H]3O)C[C@@H]1O [pentostatin]	+VE	vMost-DILI-Concern		
CC(=O)CCCCn1c(=O)c2c(ncn2C)n(C)c1=O [pentoxifylline]	-VE	Ambiguous DILI-concern		
FC(F)(F)C(F)(F)C(F)(F)F [perflutren]	-VE	vNo-DILI-Concern		
CCC[C@H](N[C@@H](C)C(=O)N1[C@H](C(=O)O)C[C@@H]2CCCC[C@@H]21)C(=O)OCC [perindopril]	-VE	Ambiguous DILI-concern		
CC1=C(C/C=C(\C)CCC[C@H](C)CCC[C@H](C)CCCC(C)C)C(=O)c2ccccc2C1=O [phytonadione]	-VE	vNo-DILI-Concern		
O=C(O)C[C@H](O)C[C@H](O)/C=C/c1c(C2CC2)nc2ccccc2c1-c1ccc(F)cc1 [pitavastatin]	-VE	Ambiguous DILI-concern		
c1cc(CN2CCCNCCNCCCNCC2)ccc1CN1CCCNCCNCCCNCC1 [plerixafor]	-VE	vNo-DILI-Concern		
